What was measured:
A549 [1] = test: Antiproliferative activity against human A549 cells assessed as reduction in cell growth at 8 uM incubated for 72 hrs by CCK-8 assay relative to control; format: functional; settings: A549, 72 h
A549 [2] = test: Antiproliferative activity against human A549 cells assessed as reduction in cell growth at 2 uM incubated for 72 hrs by CCK-8 assay relative to control; format: functional; settings: A549, 72 h
HeLa [3] = test: Antiproliferative activity against human HeLa cells assessed as reduction in cell growth at 8 uM incubated for 72 hrs by CCK-8 assay relative to control; format: functional
SMMC-7721 [4] = test: Antiproliferative activity against human SMMC7721 cells assessed as reduction in cell growth at 2 uM incubated for 72 hrs by CCK-8 assay relative to control; format: functional; settings: SMMC-7721, 72 h
SMMC-7721 [5] = test: Antiproliferative activity against human SMMC7721 cells assessed as reduction in cell growth at 8 uM incubated for 72 hrs by CCK-8 assay relative to control; format: functional; settings: SMMC-7721, 72 h
A-375 [6] = test: Antiproliferative activity against human A375 cells assessed as reduction in cell growth at 2 uM incubated for 72 hrs by CCK-8 assay relative to control; format: functional; settings: A-375, 72 h
HCT-116 [7] = test: Antiproliferative activity against human HCT116 cells assessed as reduction in cell growth incubated for 72 hrs by CCK-8 assay; format: functional, cell-based; settings: HCT-116, 72 h
HeLa [8] = test: Antiproliferative activity against human HeLa cells assessed as reduction in cell growth at 2 uM incubated for 72 hrs by CCK-8 assay relative to control; format: functional
HCT-116 [9] = test: Antiproliferative activity against human HCT116 cells assessed as reduction in cell growth at 2 uM incubated for 72 hrs by CCK-8 assay relative to control; format: functional; settings: HCT-116, 72 h
A-375 [10] = test: Antiproliferative activity against human A375 cells assessed as reduction in cell growth at 8 uM incubated for 72 hrs by CCK-8 assay relative to control; format: functional; settings: A-375, 72 h
HCT-116 [11] = test: Antiproliferative activity against human HCT116 cells assessed as reduction in cell growth at 8 uM incubated for 72 hrs by CCK-8 assay relative to control; format: functional; settings: HCT-116, 72 h
HeLa [12] = test: Antiproliferative activity against human HeLa cells assessed as reduction in cell growth incubated for 72 hrs by CCK-8 assay; format: functional, cell-based
A-375 [13] = test: Antiproliferative activity against human A375 cells assessed as reduction in cell growth incubated for 72 hrs by CCK-8 assay; format: functional, cell-based; settings: A-375, 72 h
SMMC-7721 [14] = test: Antiproliferative activity against human SMMC7721 cells assessed as reduction in cell growth incubated for 72 hrs by CCK-8 assay; format: functional, cell-based; settings: SMMC-7721, 72 h
A549 [15] = test: Antiproliferative activity against human A549 cells assessed as reduction in cell growth incubated for 72 hrs by CCK-8 assay; format: functional, cell-based; settings: A549, 72 h

| IC50 (HCT-116 [7]) | IC50 (HeLa [12]) | IC50 (A-375 [13]) | IC50 (SMMC-7721 [14]) | IC50 (A549 [15]) | SMILES | inhibition at 8 µM (A549 [1]) | inhibition at 2 µM (A549 [2]) | inhibition at 8 µM (HeLa [3]) | inhibition at 2 µM (SMMC-7721 [4]) | inhibition at 8 µM (SMMC-7721 [5]) | inhibition at 2 µM (A-375 [6]) | inhibition at 2 µM (HeLa [8]) | inhibition at 2 µM (HCT-116 [9]) | inhibition at 8 µM (A-375 [10]) | inhibition at 8 µM (HCT-116 [11]) |
| --- | --- | --- | --- | --- | --- | --- | --- | --- | --- | --- | --- | --- | --- | --- | --- |
| 5.8 µM | – | – | – | – | COc1ccc2c(=O)n(-c3cccc(Cl)c3)c(SCc3ccc(C(=O)Nc4ccccc4N)cc3)nc2c1 | 30% | 20.9% | 51.2% | 21.3% | 27% | 21.7% | 12.3% | 22% | 36% | 64% |
| 2.47 µM | 3.12 µM | 1.19 µM | 3.62 µM | – | Cc1ccc2c(=O)n(C)c(SCc3ccc(C(=O)Nc4ccccc4N)cc3)nc2c1 | 52.7% | 23.3% | 84.3% | 41.7% | 78.9% | 52.9% | 59.8% | 59.8% | 88.2% | 74.9% |
| – | – | – | – | 20 µM | COc1ccc2c(=O)n(CCCC[S+](C)[O-])c(SCc3ccc(/C=C/C(=O)Nc4ccccc4N)cc3)nc2c1 (centres undefined) | 62.7% | 53.8% | 41% | 3.1% | 9.9% | 13.2% | 1.1% | 4.5% | 18.8% | 8.6% |
| 4.33 µM | – | – | – | – | CCn1c(SCc2ccc(C(=O)Nc3ccccc3N)cc2)nc2cc(Br)ccc2c1=O | 45.4% | 20.4% | 41.3% | 22.9% | 36.8% | 19.8% | 30.4% | 24.8% | 40.7% | 68.5% |
| 2.22 µM | 4.99 µM | 3.01 µM | 3.32 µM | – | Cn1c(SCc2ccc(C(=O)Nc3ccccc3N)cc2)nc2cc(Cl)ccc2c1=O | 22.3% | 21.8% | 76.5% | 38.9% | 73.2% | 44.5% | 51.1% | 58.7% | 51.2% | 81.5% |
| 2.01 µM | 0.95 µM | 2.57 µM | 1.67 µM | – | Cc1ccc2nc(SCc3ccc(C(=O)Nc4ccccc4N)cc3)n(C)c(=O)c2c1 | 33.9% | 18.2% | 85.5% | 65.6% | 75.7% | 44.6% | 63% | 49.2% | 73.6% | 79.3% |
| 3.63 µM | – | – | – | – | CCCCn1c(SCc2ccc(C(=O)Nc3ccccc3N)cc2)nc2cc(F)ccc2c1=O | 46.5% | 41.1% | 30.9% | 9.1% | 41.6% | 18% | 30.9% | 22.8% | 43.1% | 78.2% |
| – | – | – | – | 16.4 µM | Cn1c(SCc2ccc(/C=C/C(=O)Nc3ccccc3N)cc2)nc2cc(Cl)ccc2c1=O | 68.8% | 15.5% | 38.8% | 7.8% | 20.9% | 2.4% | 29.3% | 2.1% | 10.2% | 21.5% |
| – | – | – | – | 3.96 µM | CCCn1c(SCc2ccc(/C=C/C(=O)Nc3ccccc3N)cc2)nc2cc(Cl)ccc2c1=O | 61.5% | 34.3% | 41.5% | 6.6% | 40.2% | 20.5% | 32.7% | 18.2% | 48.2% | 27.3% |
| 1.29 µM | – | 2.3 µM | 5.37 µM | – | COc1ccc2c(=O)n(-c3ccccc3C)c(SCc3ccc(C(=O)Nc4ccccc4N)cc3)nc2c1 | 54.5% | 36.3% | 33.1% | 58.2% | 78.1% | 39.1% | 23.6% | 73.5% | 83.6% | 88.2% |
| 2.71 µM | 4.81 µM | 3.28 µM | 0.9 µM | – | Cn1c(SCc2ccc(C(=O)Nc3ccccc3N)cc2)nc2cc(F)ccc2c1=O | 45% | 21.3% | 84.6% | 52.5% | 75.1% | 30% | 39.7% | 51.7% | 64.3% | 79.7% |
| 1.59 µM | 2.69 µM | 2.82 µM | – | 6.62 µM | COc1ccc2c(=O)n(CC/C=C/[S+](C)[O-])c(SCc3ccc(C(=O)Nc4ccccc4N)cc3)nc2c1 (centres undefined) | 56.3% | 36.9% | 74.1% | 6.9% | 57.2% | 34.4% | 35.8% | 59% | 67.2% | 88% |
| – | – | – | 0.69 µM | – | Cc1cccc2nc(SCc3ccc(C(=O)Nc4ccccc4N)cc3)n(C)c(=O)c12 | 41.8% | 34.7% | 58.3% | 59.2% | 68.5% | 35.6% | 43.8% | 29.1% | 36.9% | 68.5% |
| 3.06 µM | – | 5.26 µM | 2.67 µM | 8.44 µM | Cc1cccc2c(=O)n(C)c(SCc3ccc(C(=O)Nc4ccccc4N)cc3)nc12 | 66.8% | 38% | 51.4% | 54.3% | 74.4% | 48.3% | 47.3% | 42.7% | 54.9% | 76.4% |

From ChEMBL document CHEMBL4393680, “Design, synthesis and biological evaluation of novel thioquinazolinone-based 2-aminobenzamide derivatives as potent histone deacetylase (HDAC) inhibitors” (Eur J Med Chem, 2019)
